Source: patent US11351178B2, “Selective HDAC6 inhibitors” (ITALFARMACO S.P.A., priority 2017, dated 2022)

Experiments:
HDAC5 = molecular target: T1, HDAC5 (Homo sapiens, UniProt Q9UQL6); assay: Enzymatic test HDAC5; format: biochemical; conditions: Table 3
T1 construct: purchased BPS 50005
Description: (§1) After a period of incubation at 30° C. (incubation times vary for different isoforms and are shown in table 1) 25 μL of solution containing the substrate were added. As substrate, FLUOR DE LYS® deacetylase substrate (Enzo Life Sciences, cat #BML-K1104, FdL), FLUOR DE LYS®-Green substrate (Enzo Life Sciences, cat #BML-K1572 FdL_G) and trifluoroacetyl-L-lysine (Tfal)-2× concentrated solution in 25 mM Tris-HCl, pH 8, 130 mM NaCl 0.05% Tween-20 10% glycerol) were used. Following a reaction period at 30° C.

[1] = Stability in human plasma; format: in vitro ADME; conditions: after 4 hours, 37° C.
Summary of the method: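 Compounds incubated at 37° C in rat or human plasma at 50 μM (UV/HPLC) or 1 or 2 μM (LC-MS/MS) for 0–4 h. Reaction stopped with acidified acetonitrile on ice; percent remaining versus initial amount and plasma half-life calculated.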

HDAC1 = molecular target: T2, HDAC1 (Homo sapiens, UniProt Q13547); assay: Enzymatic test HDAC1; format: biochemical; conditions: Table 3
T2 construct: purchased BPS 50051

HDAC10 = molecular target: T3, HDAC10 (Homo sapiens, UniProt Q969S8); assay: Enzymatic test HDAC10; format: biochemical; conditions: Table 3
T3 construct: purchased BPS 50010
T3 sequence (Q969S8 1-669): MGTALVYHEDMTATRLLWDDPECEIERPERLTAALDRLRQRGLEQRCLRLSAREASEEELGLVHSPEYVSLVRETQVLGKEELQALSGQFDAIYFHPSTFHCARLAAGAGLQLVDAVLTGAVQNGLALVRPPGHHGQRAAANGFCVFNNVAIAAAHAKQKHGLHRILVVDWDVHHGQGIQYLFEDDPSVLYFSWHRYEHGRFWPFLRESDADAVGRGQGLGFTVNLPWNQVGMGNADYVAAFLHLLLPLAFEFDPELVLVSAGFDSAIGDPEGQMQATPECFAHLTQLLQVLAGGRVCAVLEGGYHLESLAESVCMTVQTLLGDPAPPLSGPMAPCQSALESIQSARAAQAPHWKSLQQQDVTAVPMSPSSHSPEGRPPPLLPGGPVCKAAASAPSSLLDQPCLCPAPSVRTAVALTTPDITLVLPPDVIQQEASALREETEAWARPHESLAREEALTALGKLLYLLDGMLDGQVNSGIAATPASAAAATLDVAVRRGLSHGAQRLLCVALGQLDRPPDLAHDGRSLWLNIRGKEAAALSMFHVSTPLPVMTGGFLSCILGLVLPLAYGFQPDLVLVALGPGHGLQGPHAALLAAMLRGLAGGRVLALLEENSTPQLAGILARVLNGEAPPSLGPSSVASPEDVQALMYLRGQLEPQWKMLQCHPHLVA

HDAC11 = molecular target: T4, HDAC11 (Homo sapiens, UniProt Q96DB2); assay: Enzymatic test HDAC11; format: biochemical; conditions: Table 3
T4 construct: purchased BML SE560
T4 sequence (Q96DB2 1-347): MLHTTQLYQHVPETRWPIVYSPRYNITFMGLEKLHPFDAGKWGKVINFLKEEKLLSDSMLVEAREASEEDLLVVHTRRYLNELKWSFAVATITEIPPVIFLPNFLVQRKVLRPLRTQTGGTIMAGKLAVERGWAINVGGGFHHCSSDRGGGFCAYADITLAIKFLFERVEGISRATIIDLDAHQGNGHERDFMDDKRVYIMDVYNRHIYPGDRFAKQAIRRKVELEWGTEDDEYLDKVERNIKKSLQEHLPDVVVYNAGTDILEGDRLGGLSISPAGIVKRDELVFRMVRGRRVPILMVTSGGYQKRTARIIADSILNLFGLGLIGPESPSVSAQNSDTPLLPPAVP
Description: as §1

HDAC2 = molecular target: T5, HDAC2 (Homo sapiens, UniProt Q92769); assay: Enzymatic test HDAC2; format: biochemical; conditions: Table 3
T5 construct: purchased BPS 50002

HDAC7 = molecular target: T6, HDAC7 (Homo sapiens, UniProt Q8WUI4); assay: Enzymatic test HDAC7; format: biochemical; conditions: Table 3
T6 construct: purchased BPS 50007
T6 sequence (Q8WUI4 518-952 limits assumed): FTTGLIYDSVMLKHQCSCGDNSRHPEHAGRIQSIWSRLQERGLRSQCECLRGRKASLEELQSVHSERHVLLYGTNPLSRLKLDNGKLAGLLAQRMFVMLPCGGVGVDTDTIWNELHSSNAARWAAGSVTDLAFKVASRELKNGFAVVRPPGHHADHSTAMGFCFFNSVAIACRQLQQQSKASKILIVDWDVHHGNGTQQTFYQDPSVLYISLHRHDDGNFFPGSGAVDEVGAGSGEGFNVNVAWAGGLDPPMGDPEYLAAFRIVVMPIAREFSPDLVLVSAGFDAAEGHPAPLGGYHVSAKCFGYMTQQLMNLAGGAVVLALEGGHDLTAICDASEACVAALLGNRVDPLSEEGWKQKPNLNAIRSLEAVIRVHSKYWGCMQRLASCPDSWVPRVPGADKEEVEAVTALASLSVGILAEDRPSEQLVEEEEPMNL
Description: as §1

T2 sequence (Q13547 whole entry): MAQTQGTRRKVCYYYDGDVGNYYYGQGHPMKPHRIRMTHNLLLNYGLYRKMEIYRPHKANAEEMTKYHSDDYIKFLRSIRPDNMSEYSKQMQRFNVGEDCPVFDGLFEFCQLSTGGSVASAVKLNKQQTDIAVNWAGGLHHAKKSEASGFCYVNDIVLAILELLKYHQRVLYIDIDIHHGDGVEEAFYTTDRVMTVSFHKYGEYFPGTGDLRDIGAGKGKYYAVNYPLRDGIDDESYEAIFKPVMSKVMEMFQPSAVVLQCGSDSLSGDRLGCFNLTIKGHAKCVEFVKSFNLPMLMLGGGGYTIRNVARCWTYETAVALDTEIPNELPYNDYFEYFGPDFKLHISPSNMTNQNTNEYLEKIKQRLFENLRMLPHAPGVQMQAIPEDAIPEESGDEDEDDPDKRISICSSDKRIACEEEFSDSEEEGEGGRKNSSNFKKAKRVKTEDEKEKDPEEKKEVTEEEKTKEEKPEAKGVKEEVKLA
T1 sequence (Q9UQL6 656-1122 limits assumed): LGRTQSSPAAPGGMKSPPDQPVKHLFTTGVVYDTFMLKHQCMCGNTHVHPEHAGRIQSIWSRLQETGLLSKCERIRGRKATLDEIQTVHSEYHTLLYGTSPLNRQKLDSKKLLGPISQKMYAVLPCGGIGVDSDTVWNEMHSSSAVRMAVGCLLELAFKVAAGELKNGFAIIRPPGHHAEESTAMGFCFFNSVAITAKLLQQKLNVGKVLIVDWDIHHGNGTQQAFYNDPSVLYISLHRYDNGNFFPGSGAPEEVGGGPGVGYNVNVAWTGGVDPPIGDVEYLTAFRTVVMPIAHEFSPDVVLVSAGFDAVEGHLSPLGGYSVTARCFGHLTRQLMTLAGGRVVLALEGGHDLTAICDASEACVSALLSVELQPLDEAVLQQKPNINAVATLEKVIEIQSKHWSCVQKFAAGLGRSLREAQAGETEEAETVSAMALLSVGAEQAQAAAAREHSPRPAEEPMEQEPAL
T5 sequence (Q92769 whole entry): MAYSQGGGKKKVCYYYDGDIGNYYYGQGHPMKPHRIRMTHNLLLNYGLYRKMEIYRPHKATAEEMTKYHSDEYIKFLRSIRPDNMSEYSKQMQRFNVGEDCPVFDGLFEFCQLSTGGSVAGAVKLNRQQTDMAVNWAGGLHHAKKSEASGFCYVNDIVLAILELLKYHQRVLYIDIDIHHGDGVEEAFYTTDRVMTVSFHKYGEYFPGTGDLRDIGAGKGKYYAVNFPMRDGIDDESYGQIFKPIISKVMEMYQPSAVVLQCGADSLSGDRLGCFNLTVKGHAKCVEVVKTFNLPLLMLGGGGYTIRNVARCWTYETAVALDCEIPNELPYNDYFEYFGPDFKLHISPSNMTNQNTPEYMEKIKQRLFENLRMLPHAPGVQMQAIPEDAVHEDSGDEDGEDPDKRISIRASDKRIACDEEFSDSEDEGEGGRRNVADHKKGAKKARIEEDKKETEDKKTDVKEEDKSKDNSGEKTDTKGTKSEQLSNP

SMILES	IC50 (HDAC5)	residual percentage in human plasma [1]	IC50 (HDAC1)	IC50 (HDAC10)	IC50 (HDAC11)	IC50 (HDAC2)	IC50 (HDAC7)
COc1ccc(C(=O)N[C@@H](Cc2cscn2)c2nc(Cc3ccc(C(=O)NO)cc3)no2)cc1OC [comp. 1, (S)—N-(1-(3-(4-(hydroxycarbamoyl)benzyl)-1,2,4-oxadiazol-5-yl)-2-(thiazol-4-yl)ethyl)-3,4-dimethoxybenzamide]	12 µM	102%	1.93 µM	2.48 µM	2.68 µM	6.66 µM	3.53 µM
Cn1c(Sc2c(F)cc(C(=O)NO)cc2F)nnc1-c1cccc2ccccc12 [comp. 2, 3,5-difluoro-N-hydroxy-4-((4-methyl-5-(naphthalen-1-yl)-4H-1,2,4-triazol-3-yl)thio)benzamide]	1.85 µM	71%	11.6 µM	14.1 µM	8.05 µM	> 30 µM	1.09 µM
O=C(NO)c1cc(F)c(Cn2nnc(-c3ccccn3)n2)c(F)c1 [comp. 6, 3,5-difluoro-N-hydroxy-4-((5-(pyridin-2-yl)-2H-tetrazol-2-yl)methyl)benzamide]	1.05 µM	96%	7.51 µM	10.9 µM	5.17 µM	27.5 µM	0.75 µM
Cn1c(Sc2ccc(C(=O)NO)cc2)nnc1-c1cccs1 [comp. 10, N-hydroxy-4-((4-methyl-5-(thiophen-2-yl)-4H-1,2,4-triazol-3-yl)thio)benzamide]	2.68 µM	99%	1.02 µM	2.82 µM	0.981 µM	4.45 µM	0.817 µM
O=C(NO)c1cc(F)c(Cn2nnnc2-c2ccccn2)c(F)c1 [comp. 13, 3,5-difluoro-N-hydroxy-4-((5-(pyridin-2-yl)-1H-tetrazol-1-yl)methyl)benzamide]	0.512 µM	94%	2.89 µM	2.68 µM	1.47 µM	11.4 µM	0.623 µM
Cn1c(Sc2c(F)cc(C(=O)NO)cc2F)nnc1-c1cccs1 [comp. 17, 3,5-difluoro-N-hydroxy-4-((4-methyl-5-(thiophen-2-yl)-4H-1,2,4-triazol-3-yl)thio)benzamide]	1.54 µM	98%	3.99 µM	6.86 µM	2.29 µM	16 µM	0.55 µM
O=C(NO)c1cc(F)c(Cn2nnc(-c3ccco3)n2)c(F)c1 [comp. 19, 3,5-difluoro-4-((5-(furan-2-yl)-2H-tetrazol-2-yl)methyl)-N-hydroxybenzamide]	0.597 µM	100%	2.52 µM	2.7 µM	0.798 µM	9.48 µM	1.02 µM
Cc1cc(-c2nnc(Sc3ccc(C(=O)NO)cc3)n2C)nn1C [comp. 85, 4-[[5-(1,5-dimethylpyrazol-3-yl)-4-methyl-1,2,4-triazol-3-yl]sulfanyl]benzenecarbohydroxamic acid]	0.559 µM		0.469 µM	0.954 µM	0.557 µM	1.7 µM	0.514 µM
Cn1c(Sc2c(F)cc(C(=O)NO)cc2F)nnc1C(c1ccccc1)c1ccccc1 [comp. 98, 4-[(5-benzhydryl-4-methyl-1,2,4-triazol-3-yl)sulfanyl]-3,5-difluoro-benzenecarbohydroxamic acid]	2.66 µM		1.01 µM	1.48 µM	2.09 µM	4.24 µM	1.99 µM
